# In patent US5015661A, “Chromanes and their pharmaceutical compositions and methods” (Hoffmann-La Roche Inc., priority 1989, dated 1991):
# Molecular target: T1, Δ^5 -lipoxygenase from rat basophilic leukemia (RBL-1) cells (Rattus norvegicus, UniProt P12527)
# T1 construct: endogenous in cells; host or cells: RBL-1 rat basophilic leukemia cells (ATCC CRL 1378); 113,000×g supernatant (cytosolic fraction)
# T1 sequence (P12527 1-673): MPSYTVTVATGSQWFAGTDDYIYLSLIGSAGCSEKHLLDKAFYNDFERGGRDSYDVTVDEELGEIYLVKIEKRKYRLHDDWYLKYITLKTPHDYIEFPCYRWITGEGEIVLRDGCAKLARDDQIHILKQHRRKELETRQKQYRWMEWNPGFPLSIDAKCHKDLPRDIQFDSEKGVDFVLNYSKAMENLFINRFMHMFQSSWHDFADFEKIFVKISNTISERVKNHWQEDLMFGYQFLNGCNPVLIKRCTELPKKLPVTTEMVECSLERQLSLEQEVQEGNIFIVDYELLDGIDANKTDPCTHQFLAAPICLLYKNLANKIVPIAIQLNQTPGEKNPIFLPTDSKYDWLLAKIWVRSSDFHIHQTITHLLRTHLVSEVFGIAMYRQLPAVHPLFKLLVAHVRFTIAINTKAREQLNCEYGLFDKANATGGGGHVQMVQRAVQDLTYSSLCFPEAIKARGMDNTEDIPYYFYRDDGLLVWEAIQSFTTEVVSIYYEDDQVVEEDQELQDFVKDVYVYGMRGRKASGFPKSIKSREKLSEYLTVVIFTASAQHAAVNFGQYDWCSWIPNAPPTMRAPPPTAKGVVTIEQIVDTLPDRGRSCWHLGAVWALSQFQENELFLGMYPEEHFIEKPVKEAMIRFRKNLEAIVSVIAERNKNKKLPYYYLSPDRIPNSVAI
# Assay: In vitro test for Δ^5 -lipoxygenase inhibitors (5-LO), RBL-1 cell enzyme, 5-HETE radioimmunoassay
# Format: biochemical
# Conditions: RBL-1 5-LO; 10 min preincubation; 8.25 μM arachidonic acid, 10 min at 37° C.; 5-HETE formation; read-out: 5-LO IC-50
# Protocol: IN VITRO TEST FOR Δ^5 -LIPOXYGENASE INHIBITORS Compounds of formula I of the invention were tested for their effect on Δ^5 -lipoxygenase from rat basophilic leukemia (RBL-1) cells. Materials. RBL-1 cells (CRL 1378) were obtained from the American TYpe Culture Collection, Rockville, MD. DMEM and glutamine were purchased from Flow Labs, McLean, VA. FBS (Gibco, Grand Island, NY) was heat-inactivated for 1 hour at 56° C. Reagents for protein determinations were obtained from Biorad, Rockville Center, NY. Arachidonic acid (approx. 99%), ATP (disodium slat), BHT, dextran (clinical grade), tetrasodium EDTA, gelatin, gentamycin sulfate solution, reduced glutathione, 1 M HEPES buffer, indomethacin, NaCl, reduced NADpH, Trizma 7.2, and Trizma 8.5 were purchased from Sigma Chemical, St. Louis, MO. CaCl2 dihydrate, Norit A charcoal, and citric acid monohydrate were obtained from Fisher Scientific, Pittsburgh, PA. […] MA. A synthetic 5-HETE standard was supplied by Dr. M. Rosenberger, Dept. of Medicinal Chemistry, Hoffmann-La Roche, Nutley, NJ; [see Corey, E.J., and Hashimoto, S. (1981 ) Tet. Letters, 22, 299-302 for method of preparation]. Ecoscint liquid sointillation fluid was purchased from National Diagnostics, Sommerville, NJ. Isolation of 5-lipoxygenase. […] Approximately 7-9 days after thawing, RBL-1 cells growing in log phase were seeded at a density of 7500 viable cells/ml in a closed 89-liter spinner flask. The cells were stirred constantly for 3-4 days at 37° C. until they reached a density greater than 500,000/ml but less than 800,00/ml. RBL-1 cells were harvested by centrifugation at 4° C. at 1500×g for 10 minutes and were washed 3 times with ice cold 0.05 M tris-HCl, pH 7.2, tetrasodium EDTA (buffer 1). The cells were washed last in 0.05 M Tris-HCl containing 14 μM indomethacin, 1 mM glutathione, 1.5 mM NaCl, and 1 mM tetrasodium EDTA (buffer 2), resuspended at a density of 5×108'/ml (approximately 10 ml) and disrupted manually at 4° C. using a 40 ml Dounce (type A pestle) homogenizer. After 5 minutes of homogenization. 95% cell lysis was confirmed by phase contrast microscopy. The broken cells were diluted 1:2 with buffer 2 and centrifuged at 12,380×g for 10 minutes at 4° C. to pellet cellular debris and granules. The 12,380×g supernatant was centrifuged at 113,000×g for 60 minutes to pellet microsomes. The high-speed supernatant (5.9±0.48 mg/ml protein) was frozen immediately in 1 ml aliquots using a dry ice/acetone bath. The isolated cytosolic fraction was stored in liquid N2 for up to 8 weeks without loss of 5-LO enzyme activity. Lipoxygenase Assay. Compounds Were dissolved at 25 mM concentration in DMSO, then diluted to final concentrations using 95% ethanol. For a typical enzyme assay, the partially purified 5-LO preparation was preincubated with drug or vehicle for 10 minutes at 30° C. The assay tubes were then transferred at a 37° C. water bath where they received arachidonic acid (8.25 μM final concentration) to initiate 5-LO activity. In addition to enzyme and substrate, each reaction tube contained: 12.5 μmoles of Tris-HCl (pH 7.2), 25 nmoles glutathione, 0.35 nmoles indomethacin and 1.25 μmoles of CaCl2 and ATP to yield a total of volume of 250 μl. The enzyme reaction was terminated after 10 minutes by the addition of 75μl […] citric acid to yield pH 3.5. The samples were immediately cooled on ice and neutralized by dilution with 0.05 M Tris-HCl, pH 8.5, which contained 25 mg/1 BHT. A boiled cytosol control was placed at the end of each assay to measure non-enzymatic oxidation of arachidonic acid. The mean specific activity of the 5-LO enzyme preparation was approximately 66.16±14.39 pmol 5-HETE/min/mg protein. Radioimmunoassay for 5-HETE. Under the assay conditions described, the 5-LO catalyzed the conversion of arachidonic acid to 5-HPETE which, as a consequence o peroxidase activity, was reduced to 5-HETE. A specific radioimmunoassay was employed to quantitate the amount (pmoles) of 5-HETE formed during the enzyme reaction. […]
row,IC50 [nM],SMILES
1,40,"Cc1c(C)c2c(c(C)c1O)CCC(C)(C#Cc1ccccc1)O2 (racemic) [Example 1, rac-3,4-Dihydro-2,5,7,8-tetramethyl-2-(phenylethynyl)-2H-1-benzopyran-6-ol]"
2,23,"Cc1c(C)c2c(c(C)c1O)CCC(C)(C#Cc1cccs1)O2 (racemic) [Example 4, rac-3,4-Dihydro-2,5,7,8-tetramethyl-2-[(2-thienyl)ethynyl]-2H-1-benzopyran-6-ol]"
3,40,"Cc1c(C)c2c(c(C)c1O)CCC(C)(C#Cc1cccnc1)O2 (racemic) [Example 14, rac-3,4-Dihydro-2,5,7,8-tetramethyl-2-[(3-pyridinyl)ethynyl]-2H-1-benzopyran-6-ol]"
4,16,"Cc1c(C)c2c(c(C)c1O)CCC(C)(C#Cc1ccccn1)O2 (racemic) [Example 15, rac-3,4-Dihydro-2,5,7,8-tetramethyl1-2-[(2-pyridinyl)ethynyl]-2H-1-benzopyran-6-ol]"
5,1.6,"Cc1c(C)c2c(c(C)c1O)CCC(C)(C#Cc1csc3ccccc13)O2 (racemic) [Example 16, rac-[2-(Benzo[b]thiophen-3-yl)ethynyl]-3.4-dihydro-2,5,7,8-tetramethyl-2H-1-benzopyran-2H-1-benzopyran-6-ol]"
6,24,"COc1ccc(C#CC2(C)CCc3c(C)c(O)c(C)c(C)c3O2)cc1OC(C)=O (racemic) [Example 20, rac-2-[(3-Acetyloxy-4-methoxyphenyl)ethynyl]-3.4-dihydro-2,5,7,8-tetramethyl-2H-1-benzopyran-6-ol]"
7,170,"COc1cccc(C#CC2(C)CCc3c(C)c(O)c(C)c(C)c3O2)c1 (racemic) [Example 22, rac-3,4-Dihydro-2-(3-methoxyphenyl)ethynyl)-2,5,7,8-tetra-methyl-2H-1-benzopyran-6-ol]"
8,160,"COC(=O)c1cc(C#CC2(C)CCc3c(C)c(O)c(C)c(C)c3O2)ccc1O (racemic) [Example 23, rac-5-(3,4-Dihydro-6-hydroxy-2,5,7,8-tetramethyl-2H-1-benzopyran-2-yl)ethynyl]-2-hydroxybenzoic acid methyl ester]"
9,160,"Cc1c(C)c2c(c(C)c1O)CCC(C)(C#Cc1ccc(-c3cccnc3)cc1)O2 (racemic) [Example 24, rac-3,4-Dihydro-2,5,7,8-tetramethyl-2-{[4-(3-pyridinyl)-phenyl]ethynyl}-2H-1-benzopyran-6-ol]"
10,160,"Cc1c(C)c2c(c(C)c1O)CCC(C)(C#Cc1ccc(-c3ccccn3)s1)O2 (racemic) [Example 26, rac-3,4-Dihydro-2,5,7,8-tetramethyl-2-{[5-(2-pyridinyl)-2-thienyl]ethynyl}-2H-1-benzopyran-6-ol]"
11,130,"COc1cc(C=O)cc(C#CC2(C)CCc3c(C)c(O)c(C)c(C)c3O2)c1O (racemic) [Example 28, rac-3-[(3,4-Dihydro-6-hydroxy-2,5,7,8-tetramethyl-2H-1-benzopyran-2-yl)ethynyl]-4-hydroxy-5-methoxybenzaldehyde]"
12,130,"COc1cc(CO)cc(C#CC2(C)CCc3c(C)c(O)c(C)c(C)c3O2)c1O (racemic) [Example 29, rac-3-[(3,4-Dihydro-6-hydroxy-2,5,7,8-tetramethyl-2H-1-benzopyran-2-yl)ethynyl]-4-hydroxy-5-methoxybenzenemethanol]"
13,160,"COc1cc(C=NO)cc(C#CC2(C)CCc3c(C)c(O)c(C)c(C)c3O2)c1O (racemic) [Example 30, rac-3-[(3,4-Dihydro-6-hydroxy-2,5,7,8-tetramethyl-2H-1-benzopyran-2yl)ethynyl]-4-hydroxy-5-methoxybenzaldehydeoxime]"
14,1000,"CCCCc1ccc(C#CC2(C)CCc3c(C)c(O)c(C)c(C)c3O2)s1 (racemic) [Example 31, rac-2-[(5-Butyl-2-thienyl)ethynyl]-3,4-dihydro-2,5,7,8-tetramethyl-2H-1-benzopyran-6-ol]"
15,160,"Cc1c(C)c2c(c(C)c1O)CCC(C)(C#Cc1cnc3ccccc3c1)O2 (racemic) [Example 33, rac-3,4-Dihydro-2,5,7,8-tetramethyl-2-(3-quinolinylethynyl)-2H-1-benzopyran-6-ol]"
16,1000,"Cc1c(C)c2c(c(C)c1O)CCC(C)(C#Cc1cncc3ccccc13)O2 (racemic) [Example 34, rac-3,4-Dihydro-2-[(4-isoquinolinyl)ethynyl]-2,5,7,8-tetramethyl-2H-1-benzopyran-6-ol]"
17,190,"Cc1c(C)c2c(c(C)c1O)CCC(C)(C#Cc1cccc(C(F)(F)F)c1)O2 (racemic) [Example 35, rac-2-{[3-(Trifluoromethyl)phenyl]ethynyl-3,4-dihydro-2,5,7,8-tetramethyl-2H-1-benzopyran-6-ol]"
18,120,"Cc1c(C)c2c(c(C)c1O)CCC(C)(C#Cc1ccc(F)c(F)c1)O2 (racemic) [Example 36, rac-2-[(3,4-Difluorophenyl)ethynyl]-3,4-dihydro-2,5,7,8-tetramethyl-2H-1-benzopyran-6-ol]"
19,500,"Cc1c(C)c2c(c(C)c1O)CCC(C)(C#Cc1cccc3ccccc13)O2 (racemic) [Example 39, rac-3,4-Dihydro-2,5,7,8-tetramethyl-2-(1-naphthyl)ethynyl-2H-1-benzopyran-6-ol]"
20,20,"Cc1c(C)c2c(c(C)c1O)CCC(C)(C#Cc1ccccc1N)O2 (racemic) [Example 40, rac-2-[(2-Aminophenyl)ethynyl]-3,4-dihydro-2,5,7,8-tetramethyl-2H-1-benzopyran-6-ol]"
21,32,"CC(=O)Oc1cc(C#CC2(C)CCc3c(C)c(O)c(C)c(C)c3O2)ccc1OCc1ccccc1 (racemic) [Example 41, rac-2-{[3-Acetyloxy-4-(phenylmethoxy)phenyl]ethynyl}-3,4-dihydro-2,5,7,8-tetramethyl-2H-1-benzopyran-6-ol]"
22,24,"Cc1c(C)c2c(c(C)c1O)CCC(C)(C#Cc1ccc(OCc3ccccc3)c(O)c1)O2 (racemic) [Example 43, rac-3,4-Dihydro-2-{[3-hydroxy-4-(phenylmethoxY)phenyl]-ethynyl}-2,5,7,8-tetramethyl-2H-1-benzopyran-6-ol]"
